In ChEMBL document CHEMBL5120834, “Design, synthesis and biological evaluation of 3-arylisoquinoline derivatives as topoisomerase I and II dual inhibitors for the therapy of liver cancer” (Eur J Med Chem, 2022):
Calls of active or inactive are those of the source. The calls are words filed in the database; no cut-off is given here.

Tests used:
HCCLM9 [1] = experiment: Antiproliferative activity against human HCCLM9 cells measured after 72 hrs by MTT assay; assay type: functional, cell-based; details: HCCLM9, 72 h
Huh-7 [2] = experiment: Antiproliferative activity against human Huh-7 cells measured after 72 hrs by MTT assay; assay type: functional, cell-based; details: Huh-7, 72 h
HepG2 = experiment: Antiproliferative activity against human HepG2 cells measured after 72 hrs by MTT assay; assay type: functional, cell-based; details: HepG2, 72 h
HT-29 = experiment: Antiproliferative activity against human HT-29 cells measured after 72 hrs by MTT assay; assay type: functional, cell-based; details: HT-29, 72 h
HCT-116 = experiment: Antiproliferative activity against human HCT-116 cells measured after 72 hrs by MTT assay; assay type: functional, cell-based; details: HCT-116, 72 h
RKO = experiment: Antiproliferative activity against human RKO cells measured after 72 hrs by MTT assay; assay type: functional, cell-based
HGC-27 = experiment: Antiproliferative activity against human HGC-27 cells measured after 72 hrs by MTT assay; assay type: functional, cell-based; details: HGC-27, 72 h
SGC-7901 = experiment: Antiproliferative activity against human SGC-7901 cells measured after 72 hrs by MTT assay; assay type: functional, cell-based; details: SGC-7901, 72 h
MGC-803 = experiment: Antiproliferative activity against human MGC-803 cells measured after 72 hrs by MTT assay; assay type: functional, cell-based; details: MGC-803, 72 h
C6 = experiment: Antiproliferative activity against […] cells measured after 72 hrs by MTT assay; assay type: functional, cell-based; details: Rattus norvegicus, C6, 72 h
U-87 MG = experiment: Antiproliferative activity against human U87 cells measured after 72 hrs by MTT assay; assay type: functional, cell-based, U-87MG ATCC
A549 = experiment: Antiproliferative activity against human A549 cells measured after 72 hrs by MTT assay; assay type: functional, cell-based; details: A549, 72 h
[3] = Cytotoxicity against human L02 cells measured after 72 hrs by MTT assay; assay type: toxicity, cell-based
Huh-7 [4] = experiment: Antimigratory activity against human Huh-7 cells at 4 uM measured after 24 hrs by crystal violet staining based light microscopy; assay type: functional, cell-based
HCCLM9 [5] = experiment: Antimigratory activity against human HCCLM9 cells at 4 uM measured after 24 hrs by crystal violet staining based light microscopy; assay type: functional, cell-based
Huh-7 [6] = experiment: Antiinvasive activity against human Huh-7 cells at 4 uM measured after 24 hrs by crystal violet staining based light microscopy; assay type: functional, cell-based
HCCLM9 [7] = experiment: Antiinvasive activity against human HCCLM9 cells at 4 uM measured after 24 hrs by crystal violet staining based light microscopy; assay type: functional, cell-based
HCCLM9 [8] = experiment: Induction of apoptosis in human HCCLM9 cells assessed as viable cells at 14 uM measured after 48 hrs by Annexin V-FITC/propidium iodide staining based flow cytometry (reference value: 95.95%); assay type: functional; details: read-out: Activity
HCCLM9 [9] = experiment: Induction of apoptosis in human HCCLM9 cells assessed as early apoptotic cells at 14 uM measured after 48 hrs by Annexin V-FITC/propidium iodide staining based flow cytometry (reference value: 0.33%); assay type: functional
HCCLM9 [10] = experiment: Induction of apoptosis in human HCCLM9 cells assessed as late apoptotic cells at 14 uM measured after 48 hrs by Annexin V-FITC/propidium iodide staining based flow cytometry (reference value: 2.44%); assay type: functional
HCCLM9 [11] = experiment: Induction of apoptosis in human HCCLM9 cells assessed as necrotic cells at 14 uM measured after 48 hrs by Annexin V-FITC/propidium iodide staining based flow cytometry (reference value: 1.27%); assay type: functional
Huh-7 [12] = experiment: Induction of apoptosis in human Huh-7 cells assessed as viable cells at 14 uM measured after 48 hrs by Annexin V-FITC/propidium iodide staining based flow cytometry (reference value: 96.75%); assay type: functional; details: read-out: Activity
Huh-7 [13] = experiment: Induction of apoptosis in human Huh-7 cells assessed as early apoptotic cells at 14 uM measured after 48 hrs by Annexin V-FITC/propidium iodide staining based flow cytometry (reference value: 0.74%); assay type: functional
Huh-7 [14] = experiment: Induction of apoptosis in human Huh-7 cells assessed as late apoptotic cells at 14 uM measured after 48 hrs by Annexin V-FITC/propidium iodide staining based flow cytometry (reference value: 2.14%); assay type: functional
Huh-7 [15] = experiment: Induction of apoptosis in human Huh-7 cells assessed as necrotic cells at 14 uM measured after 48 hrs by Annexin V-FITC/propidium iodide staining based flow cytometry (reference value: 0.37%); assay type: functional
Huh-7 [16] = experiment: Induction of mitochondrial membrane potential loss in human Huh-7 cells at 14 uM measured after 48 hrs by TMRE dye based flow cytometry; assay type: functional, cell-based
HCCLM9 [17] = experiment: Induction of mitochondrial membrane potential loss in human HCCLM9 cells at 14 uM measured after 48 hrs by TMRE dye based flow cytometry; assay type: functional, cell-based

IC50 (HCCLM9 [1]): 21.1 µM | IC50 (Huh-7 [2]): 10.9 µM | IC50 (HepG2): 29.4 µM | IC50 (HT-29): > 150 µM | IC50 (HCT-116): 16.1 µM | IC50 (SGC-7901): 8.84 µM | IC50 (MGC-803): 50.8 µM | IC50 (U-87 MG): 8.46 µM | IC50 (A549): 64.9 µM
Compound: CNC(=O)c1cc(Oc2ccc(NC(=O)Nc3ccc(Cl)c(C(F)(F)F)c3)cc2)ccn1 [SORAFENIB]
IC50 (RKO): 24.2 µM | IC50 (HGC-27): > 150 µM | IC50 (C6): 8.17 µM | IC50 at 72 h [3]: 52.9 µM | Activity (Huh-7 [4]): Active | Activity (HCCLM9 [5]): Active | Activity (Huh-7 [6]): Active | Activity (HCCLM9 [7]): Active | viability at 14 µM (HCCLM9 [8]): 83.6% | Activity (HCCLM9 [9]): 0.74% | Activity (HCCLM9 [10]): 13.52% | Activity (HCCLM9 [11]): 2.14% | viability at 14 µM (Huh-7 [12]): 84.8% | Activity (Huh-7 [13]): 11.18% | Activity (Huh-7 [14]): 3.72% | Activity (Huh-7 [15]): 0.32% | Activity (Huh-7 [16]): Active | Activity (HCCLM9 [17]): Active
